Structures can show the parent of a compound that is named as a salt.
How the values were obtained:
[1] = biological target: T1, LXRβ (Homo sapiens, UniProt P55055); assay: ligand sensing assay (LiSA), LXRβ; assay type: biochemical; conditions: hydrochloride
T1 sequence (P55055 1-460): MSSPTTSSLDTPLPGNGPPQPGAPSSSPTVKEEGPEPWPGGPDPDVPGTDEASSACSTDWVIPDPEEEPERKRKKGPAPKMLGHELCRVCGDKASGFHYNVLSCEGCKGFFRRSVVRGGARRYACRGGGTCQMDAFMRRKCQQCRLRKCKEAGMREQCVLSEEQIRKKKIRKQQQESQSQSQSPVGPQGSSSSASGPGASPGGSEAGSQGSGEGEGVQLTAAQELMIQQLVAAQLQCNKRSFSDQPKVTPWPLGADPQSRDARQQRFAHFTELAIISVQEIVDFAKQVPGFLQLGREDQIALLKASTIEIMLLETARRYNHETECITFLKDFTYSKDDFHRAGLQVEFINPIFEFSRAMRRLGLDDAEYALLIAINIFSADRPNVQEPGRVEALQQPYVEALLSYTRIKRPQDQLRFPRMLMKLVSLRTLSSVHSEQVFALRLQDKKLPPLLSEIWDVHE
Description: As used herein, reference to the activity of an LXR agonist at LXRα and LXRβ refer to the activity as measured using the ligand sensing assay (LiSA) described in Spencer et al. Journal of Medicinal Chemistry 2001, 44, 886-897, incorporated herein by reference. […] For example, the methods of the invention can be performed using an LXRβ agonist having activity for LXRβ that is at least 3-fold greater than the activity of the agonist for LXRα, or having activity for LXRβ that is at least 10-fold greater than the activity of the agonist for LXRα, or having activity for LXRβ that is at least 100-fold greater than the activity of said agonist for LXRα, or having activity for LXRβ that is at least within 3-fold of the activity of the agonist for LXRα. The term “greater activity” in the LiSA assay refers to a lower EC50.

[2] = test system: MeWo, HT-144, SK-Mel-2, SK-Mel-334.2 human melanoma cells; assay: Cell invasion assay (trans-well matrigel); assay type: cell-based; conditions: MeWo, 1 μM, 72 hours
Description: FIG. 2. Activation of LXRβ Signaling Suppresses Melanoma Cell Invasion and Endothelial Recruitment. (A) Heat-map depicting microarray-based expression levels of LXR and RXR isoforms in the NCI-60 melanoma cell line collection. The heat map for these genes is extracted from the larger nuclear hormone receptor family heat map (FIG. 3). Color-map key indicates the change in standard deviations for the expression value of each receptor relative to the average expression value of all microarray-profiled genes (>39,000 transcript variants) in each cell line. (B) Cell invasion by 1×10^5 MeWo, 5×10^4 HT-144, 5×10^5 SK-Mel-2, and 5×10^4 SK-Mel-334.2 human melanoma cells. Cells were treated with DMSO, GW3965, T0901317, or Bexarotene at 1 μM for 72 hours and subjected to a trans-well matrigel invasion assay. n=4-8. (C) 5×10^4 MeWo, HT-144, SK-Mel-2, and SK-Mel-334.2 human melanoma cells were tested for their ability to recruit 1×10^5 endothelial cells in a trans-well migration assay, following treatment of the melanoma cells with DMSO, GW3965, T0901317, or Bexarotene at 1 μM for 72 hours. n=4-8. […] Scale bar, 50 μm. *p<0.05, **p<0.01, ***p<0.001, ****p<0.0001.
The cell invasion assay was performed as previously described in detail (Pencheva et al., 2012) using a trans-well matrigel invasion chamber system (354480, BD Biosciences). In brief, various melanoma cells were cultured in the presence of DMSO, GW3965, T0901317, or Bexarotene at 1 μM for 56 hours, after which melanoma cells were switched to starvation media (0.2% FBS) for 16 hours in the presence of each drug. Following starvation, cells were seeded into matrigel-coated trans-well inserts, and the invasion assay was allowed to proceed for 24 hours at […]. For ApoE antibody neutralization experiments, 40 μg/mL 1 D7 anti-ApoE blocking antibody (Heart Institute, University of Ottawa, Ottawa, Canada) or […] anti-IgG control antibody (AB-108-C, R&D Systems, Minneapolis, Minn.) was added to each trans-well insert at the start of the assay.
The cells were then serum starved for 16 hours in 0.2% FBS media in the presence of each corresponding drug or DMSO. Following serum starvation, the cells were subjected to the trans-well invasion assay using a matrigel invasion chamber system (354480, BD Biosciences). Invasion chambers were pre-equilibrated prior to the assay by adding 0.5 mL of starvation media to the top and bottom wells. Meanwhile, cancer cells were trypsinized and viable cells were counted using trypan blue. Cancer cells were then resuspended at a concentration of 2×10^5 cells/1 mL starvation media, and 0.5 mL of cell suspension, containing 1×10^5 cells, was seeded into each trans-well. The invasion assay was allowed to proceed for 24 hours at 37° C. […] Following fixation, the inserts were washed in PBS, cut out, and mounted onto slides using VectaShield mounting medium containing DAPI nuclear stain (H-1000, Vector Laboratories). The basal side of each insert was imaged using an inverted fluorescence microscope (Zeiss Axiovert 40 CFL) at 5× magnification, and the number of DAPI-positive cells was quantified using ImageJ.

[3] = test system: MeWo human melanoma cells; assay: Subcutaneous MeWo tumor growth in immunocompromised mice; assay type: in vivo; conditions: oral
Experimental: (§1) FIG. 4. Therapeutic LXR Activation Inhibits Melanoma Tumor Growth. […] Representative tumor images shown correspond to tumors extracted at the final day (d12). n=10-18 (A), 8-10 (B). (C-E) Primary tumor growth by 1×10^6 MeWo (C), […] SK-Mel-334.2 (D), and 2×10^6 SK-Mel-2 (E) human melanoma cells subcutaneously injected into immunocompromised mice. […] Tumor images shown correspond to last day of measurements. n=6-34 (C), 8 (D), 5 (E). (F) 5×10^4 B16F10 cells were injected subcutaneously into C57BL/6-WT mice. Upon tumor growth to 150 mm^3, mice were fed continuously with a control chow or a chow containing GW3965 (150 mg/kg), and tumor growth was measured daily. n=6-13. […] Tumor volume was calculated as (small diameter)^2×(large diameter)/2. […] Scale bars, 5 mm (A-D), 50 μm (J, K), 25 μm (L).

[4] = test system: SK-Mel-2 human melanoma cells; assay: Subcutaneous SK-Mel-2 tumor growth in immunocompromised mice; assay type: in vivo; conditions: oral
Experimental: as §1

[5] = test system: B16F10 parental and DTIC-resistant cells; assay: Tumor growth by DTIC-sensitive and DTIC-resistant B16F10 cells; assay type: in vivo, mouse; conditions: chow 100 mg/kg
Experimental: Dacarbazine-resistant B16F10 mouse melanoma cells were generated by continuously culturing the cells in the presence of DTIC (D2390, Sigma-Aldrich, St. Louis, Mo.). First, the cells were treated with 500 μg/mL DTIC for one week. Following this initial DTIC treatment, the remaining (˜10%) viable cells were allowed to recover for one week, after which 750 μg/mL of DTIC was added to the cell media for 5 days. Subsequent to this high-dose treatment, the cells were allowed to recover in the presence of low-dose DTIC (100 μg/mL) for one week. The cells were then continuously cultured in cell media containing 200 μg/mL DTIC for at least one month prior to grafting the cells into mice. DTIC was added to fresh cancer cell media every 3 days. For tumor growth experiments, 5×10^4 B16F10 parental and DTIC-resistant cells were subcutaneously injected into the lower flank of 7-week-old C57BL/6 mice.

[6] = test system: ApoE expression; assay: ApoE expression by qRT-PCR in human melanoma cells
Experimental: (A-B) Parental MeWo cells were incubated in the presence of DMSO or GW3965 at the indicated concentrations. After 48 hours, total RNA was extracted, and the levels of ApoE (A) and DNAJA4 (B) were determined by qRT-PCR. n=3. (C) Cell invasion by 1×10^5 parental MeWo cells pre-treated with GW3965 or DMSO for 48 hours. n=6-7. p-values based on a one-sided student's t-test. […] (D) Endothelial recruitment by 5×10^4 parental MeWo cells pre-treated with GW3965 or DMSO for 48 hours. n=6-7. p-values based on a one-sided student's t-test. (E) Mice were fed with grain-based chow diet containing GW3965 (20 mg/kg) or a control diet. After 10 days, 4×10^4 parental MeWo cells were tail-vein injected into mice, and the mice were continuously fed with GW3965-containing chow or a control diet throughout the experiment.
(A-C) MeWo (A), HT-144 (B), and WM-266-4 (C) human melanoma cells were treated with GW3965 or T0901317 at the indicated concentrations for 48 hours, and the expression levels of ApoE were analysed by qRT-PCR. n=3. (D) Extracellular ApoE protein levels, quantified by ELISA, in serum-free conditioned media collected from HT-144 human melanoma cells treated with DMSO, GW3965, or T0901317 at 1 μM for 72 hours. n=3-4. […] (I-J) Relative ApoE expression, quantified by qRT-PCR, in MeWo (I) and HT-144 (J) cells transduced with a control shRNA or shRNAs targeting LXRα or LXRβ and subsequently treated with DMSO, GW3965, or T0901317 at 1 μM for 48 hours. n=3-9. (K) Extracellular ApoE protein levels, measured by ELISA, in serum-free conditioned media harvested from HT-144 cells transduced with a control shRNA or an shRNA targeting LXRα or LXRβ and treated with DMSO or GW3965 at 1 μM for 72 hours. n=3.
RNA was extracted from whole cell lysates using the Total RNA Purification Kit (17200, Norgen, Thorold, Canada). 600 ng of total RNA was then reverse transcribed into cDNA using the cDNA First-Strand Synthesis Kit (18080-051, Invitrogen), and quantitative real-time PCR amplification was performed as previously described (Pencheva et al., 2012) using an ABI Prism 7900HT Real-Time PCR System (Applied Biosystems, Austin, Tex.). […]
For every sample, 600 ng of RNA was reverse transcribed into cDNA using the cDNA First-Strand Synthesis kit (Invitrogen). […] Each reaction was carried out in quadruplicates, and ApoE mRNA expression levels were measured by quantitative real-time PCR amplification using an ABI Prism 7900HT Real-Time PCR System (Applied Biosystems). The relative ApoE expression was determined using the ΔΔCt method.

## O=C(O)Cc1cccc(OCCCN(Cc2cccc(C(F)(F)F)c2Cl)CC(c2ccccc2)c2ccccc2)c1 [GW3965 108, 3-[3-[N-(2-Chloro-3-trifluoromethylbenzyl)-(2,2-diphenylethyl)amino]propyloxy] phenylacetic acid hydrochloride]
[1]
  greater activity for LXRβ compared to LXRα: 6 fold
[1]; row
  greater activity for LXRβ compared to LXRα: approximately 6 fold
[2]
  suppression of cell invasion and endothelial recruitment upon knockdown of ApoE in melanoma cells: blocked
[2]; HT-144
  ability to suppress invasion and endothelial recruitment upon knockdown of melanoma LXRβ, but not LXRα: abrogated
[3]
  inhibition of tumor growth, MeWo: 70%
[4]
  inhibition of tumor growth, SK-Mel-2: 49%
[5]
  suppression of tumor growth by the DTIC-resistant B16F10 melanoma clone: more than 70%
[6]
  potency of inducing ApoE expression in vitro: potently induce
